Measurements as given in patent US10576059B2, “Substituted phenylpyrrolecarboxamides with therapeutic activity in HIV” (New York Blood Center, Inc., priority 2014, dated 2020).

tested on: PBMC; experiment: Cytotoxicity in PBMC (XTT); type: cell-based; settings: 7 days
Procedure: For the PBMC toxicity assay we used 5×10^5 cells/ml and the cytotoxicity of the compounds was measured after 7 days of incubation as previously reported^8. Following the addition of XTT the soluble intracellular formazan was quantitated colorimetrically at 450 nm 4 h later. The percent of cytotoxicity and the CC50 values were calculated as above. (See Table 4)

| Structure (SMILES) | CC50 |
| --- | --- |
| Cc1nc(C(NC(=O)C(=O)Nc2ccc(Cl)cc2)C2CCCCN2)sc1CO (stereo not drawn) [NBD-09027] | > 160 µM |

tested on: panel of HIV-1 ENV-pseudoviruses (subtype A, A/D, A2/D, A/E, A/G, B, C and D); experiment: microbe, parasite or virus in culture; type: cell-based; settings: Human immunodeficiency virus 1, TZM-bl, read-out: IC50 (μM) ± S.D., subtype B, ENV B41

| Structure (SMILES) | IC50 |
| --- | --- |
| Cc1nc(C(CN)NC(=O)c2ccc(-c3ccc(Cl)cc3)[nH]2)sc1CO (single isomer, unassigned) [Compound 40] | 0.28 ± 0.03 µM |

same assay, conditions: Human immunodeficiency virus 1, TZM-bl, read-out: IC50 (μM) ± S.D., subtype B, NIH # 11024, ENV AC10.0, clone 29

| Structure (SMILES) | IC50 |
| --- | --- |
| Cc1nc(C(CN)NC(=O)c2ccc(-c3ccc(Cl)cc3)[nH]2)sc1CO (single isomer, unassigned) [Compound 40] | 0.29 ± 0.03 µM |

same assay, conditions: Human immunodeficiency virus 1, TZM-bl, read-out: IC50 (μM) ± S.D., subtype B, NIH # 11578, ENV pWEAUd15.410.5017

| Structure (SMILES) | IC50 |
| --- | --- |
| Cc1nc(C(CN)NC(=O)c2ccc(-c3ccc(Cl)cc3)[nH]2)sc1CO (single isomer, unassigned) [Compound 40] | 0.28 ± 0.04 µM |

same assay, conditions: subtype A, ENV BG505-T332N; read-out: IC50 (μM) ± S.D.

| Structure (SMILES) | IC50 |
| --- | --- |
| Cc1nc(C(CN)NC(=O)c2ccc(-c3ccc(Cl)cc3)[nH]2)sc1CO (single isomer, unassigned) [Compound 40] | 0.33 ± 0.04 µM |

tested on: HIV-1 pseudovirus pseudotyped with HXB2 Env; experiment: microbe, parasite or virus in culture; type: cell-based; settings: Human immunodeficiency virus 1, HXB2, TZM-bl, TZM-bl cells, HIV-1 pseudovirus with HXB2 Env

| Structure (SMILES) | IC50 |
| --- | --- |
| Cc1nc(C(NC(=O)c2ccc(-c3ccc(Cl)c(F)c3)[nH]2)C2CCCCN2)sc1CO (single isomer, unassigned) [Compound 20] | 3 ± 0.4 µM |
| Cc1ccc(-c2ccc(C(=O)NC(c3nc(C)c(CO)s3)C3CCCCN3)[nH]2)cc1F (single isomer, unassigned) [Compound 22] | 2.7 ± 0.2 µM |
| Cc1ccc(-c2ccc(C(=O)NC(c3nc(C)c(CCO)s3)C3CCCCN3)[nH]2)cc1F (single isomer, unassigned) [Compound 24] | 10.6 ± 0.1 µM |
| Cc1nc(C(NC(=O)c2ccc(-c3ccc(Cl)c(F)c3)[nH]2)C2CCCCN2)sc1CCO (single isomer, unassigned) [Compound 26] | 7.5 ± 0.2 µM |
| Cc1nc(C(NC(=O)c2ccc(-c3ccc(Cl)cc3)[nH]2)C2CCCCN2)sc1CCO (single isomer, unassigned) [Compound 28] | 8.9 ± 0.2 µM |
| Cc1ccc(-c2ccc(C(=O)NC(c3nc(C)c(CCCO)s3)C3CCCCN3)[nH]2)cc1F (single isomer, unassigned) [Compound 30] | 11.2 ± 0.7 µM |
| Cc1nc(C(NC(=O)c2ccc(-c3ccc(Cl)c(F)c3)[nH]2)C2CCCCN2)sc1CCCO (single isomer, unassigned) [Compound 31] | 5.1 ± 0.7 µM |
| Cc1nc(C(NC(=O)c2ccc(-c3ccc(Cl)cc3)[nH]2)C2CCCCN2)[nH]c1CO (single isomer, unassigned) [Compound 33] | 14 ± 0.1 µM |
| Cc1nc(C(NC(=O)c2ccc(-c3ccc(Cl)c(F)c3)[nH]2)C2CCCCN2)[nH]c1CO (single isomer, unassigned) [Compound 35] | 9 ± 0.2 µM |
| Cc1ccc(-c2ccc(C(=O)NC(CN)c3nc(C)c(CO)s3)[nH]2)cc1F (single isomer, unassigned) [Compound 43] | 1.7 ± 0.4 µM |
| Cc1nc(C(CNC(=N)N)NC(=O)c2ccc(-c3ccc(Cl)cc3)[nH]2)sc1CO (single isomer, unassigned) [Compound 45] | > 37 µM |
| Cc1nc(C(CNC(=N)N)NC(=O)c2ccc(-c3ccc(Cl)c(F)c3)[nH]2)sc1CO (single isomer, unassigned) [Compound 48] | > 27 µM |
| Cc1ccc(-c2ccc(C(=O)NC(CNC(=N)N)c3nc(C)c(CO)s3)[nH]2)cc1F (single isomer, unassigned) [Compound 49] | > 28 µM |
| Cc1nc(C(CN)NC(=O)c2ccc(-c3ccc(Cl)c(F)c3)[nH]2)sc1CO (single isomer, unassigned) [Compound 51] | 1.4 ± 0.5 µM |
| O=C(NC(c1ccccc1)c1ccc[nH]1)c1ccc(-c2ccc(Cl)cc2)[nH]1 (stereo not drawn) [Compound 1] | 16.4 ± 1.5 µM |
| Nc1nc(CNC(=O)c2ccc(-c3ccc(Cl)cc3)[nH]2)n[nH]1 [Compound 2] | > 63 µM |
| N=C(N)Nc1ccc(CC(NC(=O)c2ccc(-c3ccc(Cl)cc3)[nH]2)C(=O)N2CCOCC2)cc1 (stereo not drawn) [Compound 3] | > 36 µM |
| N=C(N)NCCCC(NC(=O)c1ccc(-c2ccc(Cl)cc2)[nH]1)C(=O)NCCO (stereo not drawn) [Compound 4] | > 44 µM |
| N=C(N)NCCCC(NC(=O)c1ccc(-c2ccccc2)[nH]1)C(=O)NCCO (stereo not drawn) [Compound 5] | > 47 µM |
| CS(=O)(=O)NCCNC(=O)C(CCCNC(=N)N)NC(=O)c1ccc(-c2ccc(Cl)cc2)[nH]1 (stereo not drawn) [Compound 6] | > 37 µM |
| CS(=O)(=O)NCCNC(=O)C(CCCNC(=N)N)NC(=O)c1ccc(-c2ccccc2)[nH]1 (stereo not drawn) [Compound 7] | > 43 µM |
| CN1CCN(NC(=O)C(CCCNC(=N)N)NC(=O)c2ccc(-c3ccc(Cl)cc3)[nH]2)CC1 (stereo not drawn) [Compound 8] | > 42 µM |

| Structure (SMILES) | IC50 |
| --- | --- |
| N=C(N)NCCCC(NC(=O)c1ccc(-c2ccc(Cl)cc2)[nH]1)C(=O)NN1CCOCC1 (stereo not drawn) [Compound 9] | > 40 µM |
| N=C(N)NCCCC(NC(=O)c1ccc(-c2ccccc2)[nH]1)C(=O)NN1CCOCC1 (stereo not drawn) [Compound 10] | > 43 µM |
| Cc1n[nH]c(C)c1CNC(=O)c1ccc(-c2ccc(Cl)cc2)[nH]1 [Compound 11] | ~60 µM |
| Cc1nccn1Cc1ccc(CNC(=O)c2ccc(-c3ccc(Cl)cc3)[nH]2)o1 [Compound 12] | 14.1 ± 1.3 µM |
| CCN(CC)Cc1ccc(OC)c(CNC(=O)c2ccc(-c3ccc(Cl)cc3)[nH]2)c1 [Compound 13] | 4.3 ± 0.1 µM |
| NS(=O)(=O)c1ccc(CCNC(=O)c2ccc(-c3ccc(Cl)cc3)[nH]2)cc1 [Compound 14] | > 50 µM |
| Cc1nc(C(NC(=O)c2ccc(-c3ccc(Cl)cc3)[nH]2)C2CCCCN2)sc1CCCO (stereo not drawn) [Compound 32] | 7.6 ± 0.8 µM |
| CNc1cc(NC(=O)c2ccc(-c3ccc(F)c(Cl)c3)[nH]2)nc(NC(=N)N)n1 [Compound 53] | > 36 µM |
| Cc1nc(C(CN)NC(=O)c2cc3cc(Cl)ccc3[nH]2)sc1CO (stereo not drawn) [Compound 60] | > 40 µM |
| Cc1nc(C(CN)NC(=O)c2cc3ccccc3[nH]2)sc1CO (stereo not drawn) [Compound 62] | > 60 µM |
| CC(=O)NCC(NC(=O)c1ccc(-c2ccc(Cl)c(F)c2)[nH]1)c1nc(C)c(CO)s1 (stereo not drawn) [Compound 64] | ~40 µM |
| Cc1nc(C(CN(C)C)NC(=O)c2ccc(-c3ccc(Cl)cc3)[nH]2)sc1CO (stereo not drawn) [Compound 66] | 16.5 ± 3.4 µM |
| CC(=O)NCC(NC(=O)c1ccc(-c2ccc(Cl)c(F)c2)[nH]1)c1nc(C)c(COC(C)=O)s1 (stereo not drawn) [Compound 70] | > 40 µM |
| Cc1nc(C(CN(C)C)NC(=O)c2ccc(-c3ccc(Cl)c(F)c3)[nH]2)sc1CO (stereo not drawn) [Compound 71] | 3.6 ± 1 µM |
| Cc1cc(-c2ccc(Cl)cc2)[nH]c1C(=O)NC(CN)c1nc(C)c(CO)s1 (stereo not drawn) [Compound 73] | 2.2 ± 0.8 µM |
| Cc1ccc(-c2ccc(C(=O)NC(CCN(C)C)c3nc(C)c(CO)s3)[nH]2)cc1F (stereo not drawn) [Compound 76] | 11 ± 2.5 µM |
| Cc1nc(C(CCN(C)C)NC(=O)c2ccc(-c3ccc(Cl)cc3)[nH]2)sc1CO (stereo not drawn) [Compound 80] | 14.2 ± 0.7 µM |
| Cc1nc(C(CCN)NC(=O)c2ccc(-c3ccc(Cl)c(F)c3)[nH]2)sc1CO (stereo not drawn) [Compound 90] | 4.1 ± 1.5 µM |
| NCC(NC(=O)c1ccc(-c2ccc(Cl)c(F)c2)[nH]1)c1ncc(CO)s1 (stereo not drawn) [Compound 94] | 1.1 ± 0.8 µM |
| Cc1nc(C(CN)NC(=O)c2cnc(-c3ccc(Cl)cc3)[nH]2)sc1CO (stereo not drawn) [Compound 97] | > 51 µM |
| Cc1nc(C(CN)NC(=O)c2ncc(-c3ccc(Cl)cc3)[nH]2)sc1CO (stereo not drawn) [Compound 99] | 34.9 ± 3 µM |
| Cc1cc(C(=O)NC(CN)c2nc(C)c(CO)s2)[nH]c1-c1ccc(Cl)cc1 (stereo not drawn) [Compound 101] | 3.6 ± 0.4 µM |

same assay, conditions: TZM-bl cells, HIV-1 pseudovirus with HXB2 Env

| Structure (SMILES) | IC50 |
| --- | --- |
| Cc1nc(C(CN)NC(=O)c2cc3cc(Cl)ccc3[nH]2)sc1CO (stereo not drawn) [Compound 61] | ~50 µM |
| Cc1nc(C(CN)NC(=O)c2cc3ccccc3[nH]2)sc1CO (stereo not drawn) [Compound 63] | > 60 µM |
| CC(=O)NCC(NC(=O)c1ccc(-c2ccc(Cl)c(F)c2)[nH]1)c1nc(C)c(CO)s1 (stereo not drawn) [Compound 65] | ~40 µM |
| Cc1nc(C(CN)NC(=O)c2cnc(-c3ccc(Cl)cc3)[nH]2)sc1CO (stereo not drawn) [Compound 98] | > 51 µM |

tested on: TZM-bl cells; experiment: Cytotoxicity in TZM-bl cells (XTT); type: cell-based; settings: 3 days
Procedure: (§1) The cytotoxicity of test compounds in TZM-bl cells was also measured by the XTT method described previously^7. […] The soluble intracellular formazan was quantitated colorimetrically at 450 nm 4 h later. The percent of cytotoxicity and the CC50 values were calculated as above. (See Table 4)

| Structure (SMILES) | CC50 |
| --- | --- |
| Cc1nc(C(CN)NC(=O)c2cc3cc(Cl)ccc3[nH]2)sc1CO (stereo not drawn) [Compound 61] | > 55 µM |
| Cc1nc(C(CN)NC(=O)c2cc3ccccc3[nH]2)sc1CO (stereo not drawn) [Compound 63] | > 60 µM |

tested on: not listed separately; experiment: Cytotoxicity in TZM-bl cells (XTT); type: cell-based; settings: human
Procedure: as §1

| Structure (SMILES) | CC50 at 3 days |
| --- | --- |
| Cc1nc(C(CN)NC(=O)c2cc3cc(Cl)ccc3[nH]2)sc1CO (stereo not drawn) [Compound 60] | ~47 µM |
| Cc1nc(C(CN)NC(=O)c2cc3ccccc3[nH]2)sc1CO (stereo not drawn) [Compound 62] | > 60 µM |
